A short description of data set [1]: The drug is tested on Collinsella intestinalis strain: DSM13280 for biotransformation. The drug concentrations were measured before and after a 12-h incubation by liquid-chromatography-coupled mass spectrometry (LC–MS). The conditions noted are these: 2 µM.
The nature of data set [2]: The drug is tested on Alistipes indistinctus strain: DSM22520 for biotransformation. The drug concentrations were measured before and after a 12-h incubation by liquid-chromatography-coupled mass spectrometry (LC–MS). The conditions noted are these: 2 µM.
Data set [3] is described as follows: The drug is tested on Clostridium ramosum strain: DSM1402 for biotransformation. The drug concentrations were measured before and after a 12-h incubation by liquid-chromatography-coupled mass spectrometry (LC–MS). Particulars: thomasclavelia ramosa, 2 µM.
Data set [4] can be described thus: The drug is tested on Blautia luti strain: DSM14534 for biotransformation. The drug concentrations were measured before and after a 12-h incubation by liquid-chromatography-coupled mass spectrometry (LC–MS). Type of data set: ADME. Also on record: dose 2 uM, timepoint 0 vs 12 hours. Particulars: 2 µM.
For data set [5] the following is noted: bacteroides thetaiotaomicron, 12 h, 2 µM.
The nature of data set [6]: The drug is tested on Blautia hansenii strain: DSM20583 for biotransformation. The drug concentrations were measured before and after a 12-h incubation by liquid-chromatography-coupled mass spectrometry (LC–MS). The conditions noted are these: 2 µM.
The nature of data set [7]: The drug is tested on Eubacterium ventriosum strain: ATCC27560 for biotransformation. The drug concentrations were measured before and after a 12-h incubation by liquid-chromatography-coupled mass spectrometry (LC–MS). The format is ADME. The arrangement: dose 2 uM, timepoint 0 vs 12 hours. The conditions noted are these: 2 µM.
Data set [8] in a line: The drug is tested on Bacteroides fragilis strain: ATCC43859 for biotransformation. The drug concentrations were measured before and after a 12-h incubation by liquid-chromatography-coupled mass spectrometry (LC–MS). The conditions noted are these: 2 µM.
A short description of data set [9]: The drug is tested on Providencia stuartii strain: ATCC25827 for biotransformation. The drug concentrations were measured before and after a 12-h incubation by liquid-chromatography-coupled mass spectrometry (LC–MS). The conditions noted are these: 2 µM.
The conditions of data set [10]: akkermansia muciniphila, 12 h, 2 µM.
Data set [11] can be described thus: The drug is tested on Bacteroides pectinophilus strain: ATCC43243 for biotransformation. The drug concentrations were measured before and after a 12-h incubation by liquid-chromatography-coupled mass spectrometry (LC–MS). The conditions noted are these: 2 µM.
A short description of data set [12]: The drug is tested on Coprococcus comes strain: ATCC27758 for biotransformation. The drug concentrations were measured before and after a 12-h incubation by liquid-chromatography-coupled mass spectrometry (LC–MS). The format is ADME. The arrangement: dose 2 uM, timepoint 0 vs 12 hours. The conditions noted are these: 2 µM.
Data set [13] is described as follows: The drug is tested on Bacteroides finegoldii strain: DSM17565 for biotransformation. The drug concentrations were measured before and after a 12-h incubation by liquid-chromatography-coupled mass spectrometry (LC–MS). Particulars: 2 µM.
Data set [14] can be described thus: The drug is tested on Bacteroides xylanisolvens strain: DSM18836 for biotransformation. The drug concentrations were measured before and after a 12-h incubation by liquid-chromatography-coupled mass spectrometry (LC–MS). The conditions noted are these: 2 µM.
For data set [15] the following is noted: enterocloster bolteae, 12 h, 2 µM.
The nature of data set [16]: The drug is tested on Subdoligranulum variabile strain: DSM15176 for biotransformation. The drug concentrations were measured before and after a 12-h incubation by liquid-chromatography-coupled mass spectrometry (LC–MS). The conditions noted are these: 2 µM.
The conditions of data set [17]: segatella copri, 12 h, 2 µM.
The conditions of data set [18]: bacteroides fragilis, 12 h, 2 µM.
The nature of data set [19]: The drug is tested on Clostridium sporogenes strain: ATCC15579 for biotransformation. The drug concentrations were measured before and after a 12-h incubation by liquid-chromatography-coupled mass spectrometry (LC–MS). The conditions noted are these: 2 µM.
The conditions of data set [20]: bacteroides thetaiotaomicron, 12 h, 2 µM. This is another data set of the same source.

For `CN(C)CCc1c[nH]c2ccc(Cn3cncn3)cc12.O=C(O)c1ccccc1` [RIZATRIPTAN BENZOATE], the “Bacterial Biotransformation” value in data set [1], in data set [2], in data set [3], in data set [4], in [5] and in [6] was “Compound NOT metabolized” in each case. For the same molecule, the “Bacterial Biotransformation” value in data set [7], in data set [8], in [9], in [10], in data set [11] and in [12] was “Compound NOT metabolized” throughout. Also, the “Bacterial Biotransformation” value in [13], in data set [14], in [15], in [16] and in [17] was “Compound NOT metabolized” throughout.

As for `Cc1nc(-c2ccc(OCC(C)C)c(C#N)c2)sc1C(=O)O` [FEBUXOSTAT], the “Bacterial Biotransformation” value is “Compound NOT metabolized” in data set [1]; “Compound NOT metabolized” in [2]; “Compound NOT metabolized” in data set [4]; “Compound NOT metabolized” in [5]; “Compound NOT metabolized” in data set [6]; “Compound metabolized” in data set [18]. In addition, the “Bacterial Biotransformation” value is reported as “Compound NOT metabolized” in data set [7]; “Compound metabolized” in [8]; “Compound NOT metabolized” in data set [19]; “Compound NOT metabolized” in data set [9]; “Compound NOT metabolized” in [11]; “Compound NOT metabolized” in [12]. In addition, the “Bacterial Biotransformation” value in data set [13], in data set [14], in [20], in data set [15] and in data set [16] was “Compound NOT metabolized” each time.

For `COc1cc(C(=O)NCc2ccc(OCCN(C)C)cc2)cc(OC)c1OC` [TRIMETHOBENZAMIDE], the “Bacterial Biotransformation” value in data set [1], in data set [2], in data set [4], in [5], in data set [6] and in data set [18] was “Compound NOT metabolized” each time. In addition, the “Bacterial Biotransformation” value in data set [7], in data set [8], in data set [19], in data set [9], in [10] and in [11] was “Compound NOT metabolized” in each case. The “Bacterial Biotransformation” value in data set [12], in data set [13], in [14], in data set [20], in data set [15] and in [16] was “Compound NOT metabolized” each time. Further, the “Bacterial Biotransformation” value in data set [17] is on record as “Compound NOT metabolized”.

On to `CC(=O)OCC(=O)[C@@]1(O)[C@@H](C)C[C@H]2[C@@H]3CCC4=CC(=O)C=C[C@]4(C)[C@@]3(F)[C@@H](O)C[C@@]21C` [BETAMETHASONE ACETATE], for which the “Bacterial Biotransformation” value in data set [1] was “Compound NOT metabolized”; in data set [2], “Compound NOT metabolized”; in data set [3], “Compound NOT metabolized”; in data set [4], “Compound NOT metabolized”; in data set [5], “Compound NOT metabolized”; in data set [6], “Compound metabolized”. For the same molecule, the “Bacterial Biotransformation” value is “Compound metabolized” in data set [18]; “Compound NOT metabolized” in data set [7]; “Compound metabolized” in data set [8]; “Compound NOT metabolized” in data set [10]; “Compound NOT metabolized” in [11]; “Compound NOT metabolized” in [12]. For the same molecule, the “Bacterial Biotransformation” value in [13] is “Compound NOT metabolized”; in data set [20], “Compound metabolized”; in data set [15], “Compound NOT metabolized”; in [16] it was “Compound NOT metabolized”; in [17], “Compound NOT metabolized”.

`O=C1C(CC[S+]([O-])c2ccccc2)C(=O)N(c2ccccc2)N1c1ccccc1` (configuration not stated) [SULFINPYRAZONE]: the “Bacterial Biotransformation” value in [1], in data set [2], in [4], in data set [5], in data set [6] and in data set [18] was “Compound NOT metabolized” throughout. Moreover, the “Bacterial Biotransformation” value in [7] was “Compound NOT metabolized”; in data set [8] it was “Compound metabolized”; in data set [9], “Compound NOT metabolized”; in [10], “Compound NOT metabolized”; in data set [11] it was “Compound NOT metabolized”; in data set [12], “Compound NOT metabolized”. The “Bacterial Biotransformation” value in data set [13] is reported as “Compound NOT metabolized”; in [14], “Compound metabolized”; in data set [20], “Compound NOT metabolized”; in data set [15], “Compound NOT metabolized”; in data set [16], “Compound NOT metabolized”; in [17] it was “Compound NOT metabolized”.

Consider `CCCCC1=NC2(CCCC2)C(=O)N1Cc1ccc(-c2ccccc2-c2nnn[nH]2)cc1` [IRBESARTAN], for which the “Bacterial Biotransformation” value is listed as “Compound NOT metabolized” in data set [1]; “Compound metabolized” in data set [2]; “Compound NOT metabolized” in data set [4]; “Compound NOT metabolized” in [5]; “Compound metabolized” in [6]; “Compound NOT metabolized” in data set [7]. Moreover, the “Bacterial Biotransformation” value in [8] is on record as “Compound metabolized”; in [19] it was “Compound NOT metabolized”; in data set [9], “Compound metabolized”; in data set [10], “Compound NOT metabolized”; in data set [11], “Compound metabolized”; in data set [12], “Compound metabolized”. Moreover, the “Bacterial Biotransformation” value in [13], in data set [14], in data set [20], in data set [15], in data set [16] and in [17] was “Compound metabolized” in each case.

For the molecule `CCCc1nn(C)c2c(=O)[nH]c(-c3cc(S(=O)(=O)N4CCN(C)CC4)ccc3OCC)nc12.O=C(O)CC(O)(CC(=O)O)C(=O)O` [SILDENAFIL CITRATE], the “Bacterial Biotransformation” value in data set [1] was “Compound NOT metabolized”; in [2] it was “Compound NOT metabolized”; in [4], “Compound NOT metabolized”; in data set [5], “Compound NOT metabolized”; in [6], “Compound metabolized”; in data set [18] it was “Compound NOT metabolized”. For the same molecule, the “Bacterial Biotransformation” value in data set [7], in data set [8], in data set [9], in data set [10], in data set [11] and in data set [13] was “Compound NOT metabolized” throughout. The “Bacterial Biotransformation” value is reported as “Compound metabolized” in data set [14], “Compound NOT metabolized” in [20], “Compound NOT metabolized” in data set [16] and “Compound NOT metabolized” in [17].

The values are drawn from ChEMBL document CHEMBL5303573, “Mapping human microbiome drug metabolism by gut bacteria and their genes” (Nature, 2019).
